Results on 2 compounds are retold here after paper PMC11653257, “Organometallic Half-Sandwich Complexes of 8-Hydroxyquinoline-Derived Mannich Bases with Enhanced Solubility: Targeting Multidrug Resistant Cancer” (Inorganic Chemistry, 2024).

For series [1], the system named is MES-SA. Briefly: Cytotoxicity in triple coculture, MES-SA mCherry. To be noted: Homo sapiens, MES-SA/B1, MES-SA/Dx5, 144 h. In kind it is cell-based, human. On the procedure:
(§1) Cell lines were purchased from the American Type Culture Collection (ATCC). MES-SA/B1 is a human MDR1-transfected derivative of MES-SA, and MES-SA mCherry, MES-SA/B1 mOrange, and MES-SA/Dx5 eGFP were engineered to stably express the respective fluorescent proteins previously.[62] Cells were kept in culture medium (DMEM) supplemented with 10% fetal bovine serum, 2 mM L-glutamine, 100 units/mL penicillin, and 100 μg/mL streptomycin (Thermo Fisher). One week before use, MES-SA/Dx5 eGFP cells were treated with 0.5 μM doxorubicin to ensure ABCB1/P-gp expression.
(§2) The tested compounds were dissolved in 50% (v/v) DMSO/PBS’ buffer to prepare 5–10 mM stock solutions, which were diluted in complete culture medium. Constitutive expression of the fluorescent proteins allowed multiplexing in cytotoxicity experiments.[62] Cells were mixed before seeding in 384-well plates: in double cocultures, MES-SA mCherry and MES-SA/Dx5 eGFP cells were seeded at 1250–1250 cells/well (in total 2500 cells/well); while in triple cocultures, MES-SA mCherry, MES-SA/Dx5 eGFP and MES-SA/B1 mOrange cells were seeded at 800–800–800 cells/well (in total 2400 cells/well). Serial dilutions of the compounds were added 24 h after seeding. To address the effect of P-gp function, TQ was added at a nontoxic concentration (0.4 μM) 15 min before the test compounds. The intensity of the fluorescent proteins, which is proportional to cell mass, was measured after 144 h of incubation at the respective fluorescent channels (excitation/emission: eGFP: 485 nm/510 nm; mOrange: 545 nm/567 nm; mCherry: 585 nm/610 nm). pIC50 values were calculated by a custom program written by Judit Sessler in C#.[62] IC50 values and standard deviation were calculated from average pIC50 values from at least 3 independent measurements.

The test system of series [2] is MES-SA/Dx5. Briefly: Cytotoxicity in triple coculture, MES-SA/Dx5 eGFP. It counts as cell-based, human. On the procedure: as §1, §2
A further series concerns Colo205. Briefly: Cytotoxicity, Colo205. It counts as cell-based. To be noted: Homo sapiens, COLO 205; 72 h incubation; this work. An excerpt:
(§3) Supplementary Information
(§4) (11 pictures or pasted objects on this page, not shown here)

A further series deals with Colo320. Briefly: Cytotoxicity, Colo320. It counts as cell-based, human. To be noted: this work.
From the text: as §3, §4

Series [3] deals with MES-SA. Briefly: Cytotoxicity in double coculture, MES-SA mCherry. Particulars: Homo sapiens, MES-SA, 144 h, read-out: IC50 MES-SA.
Series [4] relates to MES-SA/Dx5. Nature of the series: Cytotoxicity in double coculture, MES-SA/Dx5 eGFP. Particulars: for IC50: Homo sapiens, MES-SA/Dx5, 144 h, read-out: IC50 MES-SA/Dx5; for SR = IC50 (MES-SA)/IC50 (MES-SA/Dx5): double coculture.
Experimental: Therefore, the novel half-sandwich complexes (1–4) and their corresponding ligands were tested against a coculture of MES-SA and MES-SA/Dx5 cells expressing the fluorescent proteins mCherry or eGFP, respectively.[62]
The tested compounds were dissolved in 50% (v/v) DMSO/PBS’ buffer to prepare 5–10 mM stock solutions, which were diluted in complete culture medium. Constitutive expression of the fluorescent proteins allowed multiplexing in cytotoxicity experiments.[62] […] Serial dilutions of the compounds were added 24 h after seeding. To address the effect of P-gp function, TQ was added at a nontoxic concentration (0.4 μM) 15 min before the test compounds. […] IC50 values and standard deviation were calculated from average pIC50 values from at least 3 independent measurements.
The conditions of series [5]: pH 7.4; cited from earlier work.
In series [6] the test system is MES-SA. Particulars: monoculture, PrestoBlue; ref SI2; cited from earlier work.
Series [7] has as its system MES-SA/Dx5. To be noted: monoculture, ref SI2, cited from earlier work.
The test system of a further series is A431. Further details: method as in earlier work. Particulars: monoculture, 72 h, PrestoBlue; ref SI3; cited from earlier work.
The test system of a further series is A431-B1. Further details: method as in earlier work. Particulars: monoculture, ref SI3, cited from earlier work.

Where two headings read alike, the source gives them in different places.

`COc1cccc2c1C(=O)c1c(O)c3c(c(O)c1C2=O)C[C@@](O)(C(=O)CO)C[C@@H]3O[C@H]1C[C@H](N)[C@H](O)[C@H](C)O1` [doxorubicin, reference compound]: the IC50 in the series on MES-SA [1] was 30 nM; in the series on MES-SA/Dx5 [2] (Homo sapiens, MES-SA/Dx5, 144 h), 1070 nM; in the series on Colo205, 50 ± 10 nM; with Colo320 (Homo sapiens, COLO 320, 72 h incubation), 190 ± 20 nM; in the series with MES-SA [3], 30 nM; in the series on MES-SA/Dx5 [4], 2620 nM. In addition, the “SR Dx5 = IC50 (MES-SA)/IC50 (MES-SA/Dx5)” value in the series with MES-SA/Dx5 [2] is 0.03. The “SR (Colo205 / Colo320)” value with Colo320 came out at 0.3. The “SR = IC50 (MES-SA)/IC50 (MES-SA/Dx5)” value with MES-SA/Dx5 [4] (+ 0.4 μM tariquidar (TQ)) amounted to 1.3; in the series with MES-SA/Dx5 [4] (without TQ), 0.01.

In the case of `Oc1c(CN2CCCCC2)ccc2cccnc12` [PHQ, 7-(1-piperidinylmethyl)quinolin-8-ol, reference compound], the “log D7.4” value in series [5] is “+0.93”. In addition, the IC50 was 3630 ± 580 nM in the series on MES-SA [6]; 620 ± 30 nM in the series on MES-SA/Dx5 [7] (PrestoBlue); 10100 ± 2950 nM with A431; 2480 ± 700 nM in the series on A431-B1 (72 h, PrestoBlue); 3800 nM in the series on MES-SA [3]; 490 nM in the series on MES-SA/Dx5 [4]. Besides, the “SR (MES-SA / MES-SA/Dx5)” value in the series with MES-SA/Dx5 [7] (+ 1 µM TQ) is listed as 0.92; with MES-SA/Dx5 [7], 5.85. Also, the “SR (A431 / A431-B1)” value in the series with A431-B1 is recorded as 4.09. The “SR = IC50 (MES-SA)/IC50 (MES-SA/Dx5)” value in the series on MES-SA/Dx5 [4] (+ 0.4 μM tariquidar (TQ)) turned out to be 1.8; in the series with MES-SA/Dx5 [4] (without TQ), 7.8.
